From patent publication US5801176A, “Substituted benzothienylpiperazines and their use” (Hoechst Marion Roussel, Inc., priority 1997, dated 1998)
Where a name gives a salt, the structure may show the parent alone.

Test system: apomorphine climbing
Test: climbing mice assay (apomorphine-induced climbing, antipsychotic activity)
Format: in vivo
Settings: Mus musculus, 0.5 h, ip @ 30 (min before apomorphine 1.5 mg/kg sc); for change in vivo at 20 mg/kg: read-out: CLIMBING MOUSE % (percent response, climbing score vs. control set to 100%); for ED50: parentheses = 95% confidence limits
Description: The compounds of the present invention are useful for treating psychoses by virtue of their ability to elicit an antipsychotic response in mammals. Antipsychotic activity is determined in the climbing mice assay by a method similar to those described by P. Protais, et al., Psychopharmacol.,50:1 (1976) and B. Costall, Eur. J. Pharmacol., 50:39 (1978).
Subject […] male mice (23-27 grams) are group-housed under standard laboratory conditions. The mice are individually placed in wire mesh stick cages (4"×10") and are allowed one hour for adaption and exploration of the new environment. Then apomorphine is injected subcutaneously at 1.5 mg/kg, a dose causing climbing in all subjects for 30 minutes. Compounds to be tested for antipsychotic activity are injected intraperitioneally or given by oral doses at various time intervals., e.g. 30 minutes, 60 minutes, etc., prior to the apomorphine challenge at a screening dose of 10-60 mg/kg.
For evaluation of climbing, 3 readings are taken at 10, 20 and 30 minutes after apomorphine administration according to the following scale:
4 paws on bottom (no climbing)
2 paws on the wall (rearing)
4 paws on the wall (full climb)
Mice consistently climbing before the injection of apomorphine are discarded.
With full-developed apomorphine climbing, the animals are hanging on to the cage walls, rather motionless, over long periods of time. By contrast, climbs due to mere motor stimulation usually only last a few seconds.
The climbing scores are individually totaled (maximal score: 6 per mouse over 3 readings) and the total score of the control group (vehicle intraperitoneally-apomorphine subcutaneously) is set to 100%. The percent response at a dose of 20 mg/kg. or the ED50 values with 95% confidence limits, calculated by a linear regression analysis, of some of the compounds of the present invention as well as a standard antipsychotic agent are presented in Table 1.

Structure (SMILES) | change in vivo at 20 mg/kg | ED50
O=C1c2ccccc2C(O)N1CCN1CCN(c2csc3cc(F)ccc23)CC1 (stereo not shown) [2-[2-[4-(6-Fluorobenzo[b]thien-3-yl)-1-piperazinyl]-ethyl-2,3-dihydro-3-hydroxy-1H-isoindol-1-one] | -43% | 
CC(C)C(=O)NCCCCN1CCN(c2csc3cc(F)ccc23)CC1 [N-[4-[4-(6-fluorobenzo[b]thien-3-yl)-1-piperazinyl]butyl]-2-methyl-propanamide] |  | 1.3 mg/kg
Fc1ccc2c(N3CCN(CCCCN4Cc5ccccc5C4)CC3)csc2c1 | -33% | 
O=C(NCCCCN1CCN(c2csc3cc(F)ccc23)CC1)c1cccs1 [N-[4-[4-(6-Fluorobenzo[b]thien-3-yl)-1-piperazinyl]butyl]-2-thiophenecarboxamide (Z)-2-butenedioate (1:1)] | -100% | 
CC(=O)N(CCCCN1CCN(c2csc3cc(F)ccc23)CC1)C(=O)C(C)C [N-Acetyl-N-[4-[4-(6-fluorobenzo[b]thien-3-yl)-1-piperazinyl]butyl]-2-methyl-propanamide] | -75% | 
CC(=O)NCCCCN1CCN(c2csc3cc(F)ccc23)CC1 [N-[4-[4-(6-Fluorobenzo[b]thien-3-yl)-1-piperazinyl]butyl-acetamide] |  | 1.35 mg/kg
O=C1c2ccccc2C(=O)N1CCCCN1CCN(c2csc3cc(F)ccc23)CC1 [2-[4-[4-(6-Fluorobenzo[b]thien-3-yl)-1-piperazinyl]butyl]-1H-isoindole-1,3(2H)-dione] | -100% | 
O=C(NCCCCN1CCN(c2csc3cc(F)ccc23)CC1)C12CC3CC(CC(C3)C1)C2 [N-[4-[4-(6-Fluorobenzo[b]thien-3-yl)-1-piperazinyl]butyl]-adamantane-1-carboxamide maleate] | -79% | 
NCCCCN1CCN(c2csc3cc(F)ccc23)CC1 [4-(6-Fluorobenzo[b]thien-3-yl)-1-piperazinebutanamine (Z)-2-butenedioate (1:2)] | -34% | 
O=C1c2ccccc2C(=O)N1CCN1CCN(c2csc3cc(F)ccc23)CC1 [N-[2-[4-(6-Fluorobenzo[b]thien-3-yl)-1-piperazinyl]-ethyl]-phthalimide] | -25% | 
